Common to all, as to type: in vivo, rhesus monkey
The nature of data set [1]: Test for determining the amount of uptake of positron-emitting source compound (PET of brain after intravenous injection). As to conditions: for kinetics in the brain: rhesus monkey, intravenous, PET. How it is done: A rhesus monkey (male, 5.5 kg in weight) was fasted overnight prior to the assay date. The monkey was seated on a monkey chair, and its head was fixed in a gantry of an animal PET camera (SHR-7700 manufactured by Hamamatsu Photonics K.K.) by a head positioner. Transmission measurement was performed for 30 minutes for […]. The injection products prepared in Production Examples 1-3 and 2 were then intravenously administered in doses of 77 ng/kg weight in terms of the amount of compound (Ia) and 230 ng/kg weight in terms of the amount of compound (Ib), respectively, and dynamic measurement was performed for 180 minutes. After the obtained images were reconstituted, a region of interest (ROI) was set in each part of the brain, and kinetics of radioactivity was determined in each region.

The subject of the next data set is α4β2 nicotine receptor. The data set can be described thus: Test for selectivity to α7 nicotine receptor: PET brain uptake after pre-administration of α4β2-selective agonist A85380. How it is done: (§1) After 30 minutes, compound (Ia) or (Ib) was administered by intravenous injection, and dynamic measurement was performed for 91 minutes. After the obtained images were reconstituted, a region of interest (ROI) was set in each part of the brain, and kinetics of radioactivity was determined in each region.

Another data set concerns the target T1, α7 nicotine receptor (Macaca mulatta, UniProt Q866A2).
T1 construct: from tissue; host or cells: brain of the living animal (in vivo PET)
How it is done: as §1

Structures are written as SMILES. Where two headings read alike, the source gives them in different places.

T1 sequence (Q866A2 23-502): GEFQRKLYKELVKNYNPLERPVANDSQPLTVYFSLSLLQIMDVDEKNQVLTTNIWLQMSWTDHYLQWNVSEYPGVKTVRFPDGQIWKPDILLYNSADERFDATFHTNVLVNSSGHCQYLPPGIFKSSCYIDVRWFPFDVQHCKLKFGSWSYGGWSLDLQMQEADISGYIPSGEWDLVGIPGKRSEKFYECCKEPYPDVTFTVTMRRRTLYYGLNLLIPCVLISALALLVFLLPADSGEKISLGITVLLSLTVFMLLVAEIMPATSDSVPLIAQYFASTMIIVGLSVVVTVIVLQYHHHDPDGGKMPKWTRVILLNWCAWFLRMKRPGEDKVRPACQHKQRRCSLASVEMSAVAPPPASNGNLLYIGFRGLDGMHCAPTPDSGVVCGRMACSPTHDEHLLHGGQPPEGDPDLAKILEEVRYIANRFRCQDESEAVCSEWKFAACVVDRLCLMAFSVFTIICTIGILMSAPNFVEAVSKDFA

On to `[11CH3]c1ccc(OC(=O)N2CCN3CCC2CC3)cc1` [Compound (Ia), 4-[^11C]methyl-phenyl 1,4-diazabicyclo[3.2.2]nonane-4-carboxylate], for which the “time of peak value of radioactivity, most/other parts of the brain” value in data set [1] (after the administration, brain parts except hippocampus) is recorded as “about 10 minutes”. The “time of peak value of radioactivity, hippocampus” value in data set [1] (after the administration) was 30 min. Moreover, the “distribution of the concentrated compound in the brain” value in data set [1] (integrated images 40 to 60 minutes after the administration) was “high in hippocampus, corpus striatum, thalamus, cingulate gyrus and cerebral cortex, but low in cerebellum”. Besides, the “kinetics in the brain” value in data set [1] is listed as “relatively fast”. Also, the “effect of pre-administered α4β2 nicotine receptor-selective agonist on uptake into each part of the brain” value in the data set on α4β2 nicotine receptor (A85380 5 mg/kg i.v. 30 minutes before the compound) was “almost no effect”. Also, the “uptake into each part of the brain after pre-administered α7 nicotine receptor-selective agonist” value at α7 nicotine receptor (SSR180711A 1 or 5 mg/kg i.v. 30 minutes before the compound, depending on the dose of the agonist) was “reduced to the level in the cerebellum”. Moreover, at α7 nicotine receptor (conclusion from blocking with SSR180711A and A85380), the “binding selectivity to α7 nicotine receptor” value is “selective binding to α7 nicotine receptor”.
As for `O=C(Oc1ccc([76Br])cc1)N1CCN2CCC1CC2` [Compound (Ib), 4-[^76Br]bromophenyl 1,4-diazabicyclo[3.2.2]nonane-4-carboxylate], the “time of peak value of radioactivity, hippocampus” value in data set [1] (after the administration) came to 60 min. Besides, the “amount of uptake in the brain” value in data set [1] (compared with compound (Ia)) is “not as large as that of compound (Ia)”. The “kinetics in the brain” value in data set [1] was “generally slow”. Further, in the data set on α4β2 nicotine receptor (rhesus monkey, in vivo), the “effect of pre-administered α4β2 nicotine receptor-selective agonist on uptake into each part of the brain” value is given as “almost no effect”. At α7 nicotine receptor (rhesus monkey, in vivo), the “binding selectivity to α7 nicotine receptor” value is recorded as “selective binding to α7 nicotine receptor” and the “uptake into each part of the brain after pre-administered α7 nicotine receptor-selective agonist” value is “reduced to the level in the cerebellum”.

For the origin of these results see patent US20090087378A1, “Positron Tomography Method and Positron-Emitting Compound to Be Used Therein” (NARD INSTITUTE, LTD., priority 2006, published 2009).
